Measurements from patent publication US12410160B2 (Gilead Sciences, Inc., priority 2021, dated 2025).

Key:
human KHK-A = human KHK-A (Homo sapiens (Human), UniProt P50053); assay: KHK Biochemical Assay (IC50), ADP-Glo, KHK-A; settings: average of at least two separate assays
Summary of the method: (§1)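 ADP-Glo luminescence measured ADP made over a 4 h room-temperature reaction of ATP plus fructose, started after 30 min compound–enzyme pre-incubation. Buffer: 50 mM Hepes pH 7.4, 140 mM KCl, 5 mM MgCl2, 0.01% Triton-X. Enzyme was His-tagged, BL21 (DE3)-expressed, Ni-NTA-purified; compounds in 1:3 DMSO dilution series.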

human KHK-C = human KHK-C (Homo sapiens (Human), UniProt P50053); assay: KHK Biochemical Assay (IC50), ADP-Glo, KHK-C; settings: average of at least two separate assays
human KHK-C, sequence (P50053 whole entry): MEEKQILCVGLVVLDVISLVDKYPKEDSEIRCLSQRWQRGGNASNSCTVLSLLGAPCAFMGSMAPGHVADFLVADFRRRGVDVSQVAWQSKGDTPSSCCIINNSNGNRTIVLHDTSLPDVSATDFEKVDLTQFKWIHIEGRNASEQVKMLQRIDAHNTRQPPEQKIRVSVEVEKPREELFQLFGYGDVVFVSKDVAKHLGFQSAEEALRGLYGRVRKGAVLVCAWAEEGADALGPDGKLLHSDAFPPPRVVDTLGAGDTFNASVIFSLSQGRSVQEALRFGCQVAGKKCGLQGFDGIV
Summary of the method: as §1

human KHK-A, sequence (P50053 other isoform, or with tags, fused parts or gaps): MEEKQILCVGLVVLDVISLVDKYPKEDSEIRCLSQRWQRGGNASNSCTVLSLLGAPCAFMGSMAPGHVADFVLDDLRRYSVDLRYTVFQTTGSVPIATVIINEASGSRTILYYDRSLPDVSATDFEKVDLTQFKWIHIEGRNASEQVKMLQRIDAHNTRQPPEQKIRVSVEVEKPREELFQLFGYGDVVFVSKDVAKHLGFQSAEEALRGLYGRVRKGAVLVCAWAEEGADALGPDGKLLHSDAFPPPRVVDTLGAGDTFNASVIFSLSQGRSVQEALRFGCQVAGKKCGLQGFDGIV

Structure (SMILES) | IC50 (human KHK-A) | IC50 (human KHK-C) | IC50 (human KHK-A; ADP-Glo) | IC50 (human KHK-C; ADP-Glo)
CCN1C(=O)NC2(COc3cc(-c4nc(N5C[C@@H](O)[C@@H]5C)nc5c4CCC5(F)F)ccc32)C1=O (stereo partly drawn) [Example 689, 6-[7,7-difluoro-2-[(2S,3R)-3-hydroxy-2-methyl-azetidin-1-yl]-5,6-dihydrocyclopenta[d]pyrimidin-4-yl]-3′-ethyl-spiro[2H-benzofuran-3,5′-imidazolidine]-2′,4′-dione] | 14.2 nM | 0.2 nM |  | 
CC(C)N1C(=O)NC2(COc3cc(-c4nc(N5C[C@@H](O)[C@@H]5C)nc5c4CCC5(F)F)ccc32)C1=O (some centres unmarked) [Example 690] | 45.4 nM | 0.3 nM |  | 
O=C1NC(=O)C2(COc3cc(-c4nc(N5CC[C@@H]5C(F)(F)F)nc5c4CCC5(F)F)ccc32)N1 (stereo partly drawn) [Example 703, 6-[7,7-difluoro-2-[(2R)-2-(trifluoromethyl)azetidin-1-yl]-5,6-dihydrocyclopenta[d]pyrimidin-4-yl]spiro[2H-benzofuran-3,5′-imidazolidine]-2′,4′-dione] | 1 nM | 0.4 nM |  | 
COc1cc(-c2nc(N3C[C@@H](O)[C@@H]3C)nc3c2CCC3(F)F)cc(S(C)(=N)=O)c1 (stereo partly drawn) [Example 719, (3-(7,7-difluoro-2-((2S,3R)-3-hydroxy-2-methylazetidin-1-yl)-6,7-dihydro-5H-cyclopenta[d]pyrimidin-4-yl)-5-methoxyphenyl)(imino)(methyl)-λ^6-sulfanone] | 32.1 nM | 21.7 nM |  | 
Cc1cc(-c2nc(N3C[C@@H](O)[C@@H]3C)nc3c2CCC3(F)F)cc(S(C)(=N)=O)c1 (stereo partly drawn) [Example 720, (3-(7,7-difluoro-2-((2S,3R)-3-hydroxy-2-methylazetidin-1-yl)-6,7-dihydro-5H-cyclopenta[d]pyrimidin-4-yl)-5-methylphenyl)(imino)(methyl)-λ^6-sulfanone] | 11.6 nM | 8.8 nM |  | 
C[C@H]1[C@H](O)CN1c1nc(-c2ccc(C(F)F)c(S(C)(=N)=O)c2)c2c(n1)C(F)(F)CC2 (stereo partly drawn) [Example 721, (5-(7,7-difluoro-2-((2S,3R)-3-hydroxy-2-methylazetidin-1-yl)-6,7-dihydro-5H-cyclopenta[d]pyrimidin-4-yl)-2-(difluoromethyl)phenyl)(imino)(methyl)-λ^6-sulfanone] | 28.3 nM | 23.2 nM |  | 
NC1(c2ccc(-c3nc(N4CC[C@@H]4C(F)(F)F)nc4c3CCC4(F)F)cc2)CCS(=O)(=O)CC1 [Example 738, (R)-4-amino-4-(4-(7,7-difluoro-2-(2-(trifluoromethyl)azetidin-1-yl)-6,7-dihydro-5H-cyclopenta[d]pyrimidin-4-yl)phenyl)tetrahydro-2H-thiopyran 1,1-dioxide] | 2 nM | 2 nM |  | 
COC(=O)NC1COc2cc(-c3nc(N4C[C@@H](O)[C@@H]4C)nc4c3CCC4(F)F)cc(OC)c21 (stereo partly drawn) [Example 824, Methyl N-[6-[7,7-difluoro-2-[(2S,3R)-3-hydroxy-2-methyl-azetidin-1-yl]-5,6-dihydrocyclopenta[d]pyrimidin-4-yl]-4-methoxy-2,3-dihydrobenzofuran-3-yl]carbamate] |  |  | 91.6 nM | 8.6 nM
COc1cc(-c2nc(N3CC[C@@H]3C(F)(F)F)nc3c2CCC3(F)F)ccc1C1(N)COC1 [Example 837, (R)-3-(4-(7,7-difluoro-2-(2-(trifluoromethyl)azetidin-1-yl)-6,7-dihydro-5H-cyclopenta[d]pyrimidin-4-yl)-2-methoxyphenyl)oxetan-3-amine] |  |  | 1 nM | 0.7 nM
C[C@H]1[C@H](O)CN1c1nc(-c2ccc(C3(N)CCOCC3)cc2)c2c(n1)C(F)(F)CC2 [Example 838, (2S,3R)-1-(4-(4-(4-aminotetrahydro-2H-pyran-4-yl)phenyl)-7,7-difluoro-6,7-dihydro-5H-cyclopenta[d]pyrimidin-2-yl)-2-methylazetidin-3-ol] |  |  | 4.8 nM | 4.1 nM
C[C@H]1CCN1c1nc2c(c(-c3ccc(OCc4ccccc4)c(S(C)(=N)=O)c3)n1)CCC2 (stereo partly drawn) [Example 839, (2-(benzyloxy)-5-(2-((S)-2-methylazetidin-1-yl)-6,7-dihydro-5H-cyclopenta[d]pyrimidin-4-yl)phenyl)(imino)(methyl)4^6-sulfanone] |  |  | 15.8 nM | 15.9 nM
COc1ccc(-c2nc(N3CC[C@@H]3C)nc3c2CCC3)cc1S(=N)(=O)C1CCOCC1 (stereo partly drawn) [Example 840, imino(2-methoxy-5-(2-((S)-2-methylazetidin-1-yl)-6,7-dihydro-5H-cyclopenta[d]pyrimidin-4-yl)phenyl)(tetrahydro-2H-pyran-4-yl)-λ^6-sulfanone] |  |  | 7.7 nM | 26.3 nM
C[C@H]1CCN1c1nc2c(c(-c3ccc(C(N)=O)c(Cc4ccccc4)c3)n1)CCC2 [Example 841, (S)-2-benzyl-4-(2-(2-methylazetidin-1-yl)-6,7-dihydro-5H-cyclopenta[d]pyrimidin-4-yl)benzamide] |  |  | 28.1 nM | 40.5 nM
C[C@H]1CCN1c1nc2c(c(-c3ccc(C(N)=O)c(SCc4ccccc4)c3)n1)CCC2 [Example 842, (S)-2-(benzylthio)-4-(2-(2-methylazetidin-1-yl)-6,7-dihydro-5H-cyclopenta[d]pyrimidin-4-yl)benzamide] |  |  | 304 nM | 576 nM
C[C@H]1CCN1c1nc2c(c(-c3ccc(C(N)=O)c(C(=O)c4ccccc4)c3)n1)CCC2 [Example 843, (S)-2-benzoyl-4-(2-(2-methylazetidin-1-yl)-6,7-dihydro-5H-cyclopenta[d]pyrimidin-4-yl)benzamide] |  |  | 130 nM | 80.8 nM
COc1ccc(-c2nc(N3CC[C@@H]3C)nc3c2CCC3)cc1S(=N)(=O)CC1COCOC1 (stereo partly drawn) [Example 844, ((1,3-dioxan-5-yl)methyl)(imino)(2-methoxy-5-(2-((S)-2-methylazetidin-1-yl)-6,7-dihydro-5H-cyclopenta[d]pyrimidin-4-yl)phenyl)-λ^6-sulfanone] |  |  | 2.5 nM | 8.5 nM
COc1ccc(-c2nc(N3CC[C@@H]3C)nc3c2CCC3)cc1S(=N)(=O)c1ccc(C#N)c(Cl)c1 (stereo partly drawn) [Example 845, 2-chloro-4-(2-methoxy-5-(2-((S)-2-methylazetidin-1-yl)-6,7-dihydro-5H-cyclopenta[d]pyrimidin-4-yl)phenylsulfonimidoyl)benzonitrile] |  |  | 47 nM | 182 nM
COc1ccc(-c2nc(N3CC[C@@H]3C)nc3c2CCC3)cc1S(=N)(=O)c1ccc(C#N)cc1C (stereo partly drawn) [Example 846, 4-(2-methoxy-5-(2-((S)-2-methylazetidin-1-yl)-6,7-dihydro-5H-cyclopenta[d]pyrimidin-4-yl)phenylsulfonimidoyl)-3-methylbenzonitrile] |  |  | 33.6 nM | 46.1 nM
C[C@H]1CCN1c1nc2c(c(-c3cccc(S(=N)(=O)c4ccc(C#N)cc4C4CC4)c3)n1)CCC2 (some centres unmarked) [Example 847] |  |  | 200 nM | 118 nM
COc1cc(S(=N)(=O)c2cccc(-c3nc(N4CC[C@@H]4C)nc4c3CCC4)c2)ccc1C#N (stereo partly drawn) [Example 848, 2-methoxy-4-(3-(2-((S)-2-methylazetidin-1-yl)-6,7-dihydro-5H-cyclopenta[d]pyrimidin-4-yl)phenylsulfonimidoyl)benzonitrile] |  |  | 249 nM | 186 nM
COc1ccc(-c2nc(N3CC[C@@H]3C)nc3c2CCC3)cc1S(=N)(=O)c1ccc(C#N)cc1Cl (stereo partly drawn) [Example 849, 3-chloro-4-(2-methoxy-5-(2-((S)-2-methylazetidin-1-yl)-6,7-dihydro-5H-cyclopenta[d]pyrimidin-4-yl)phenylsulfonimidoyl)benzonitrile] |  |  | 16.3 nM | 25.4 nM
COc1cc(S(=N)(=O)c2cc(-c3nc(N4CC[C@@H]4C)nc4c3CCC4)ccc2OC)ccc1C#N (stereo partly drawn) [Example 850, 2-methoxy-4-(2-methoxy-5-(2-((S)-2-methylazetidin-1-yl)-6,7-dihydro-5H-cyclopenta[d]pyrimidin-4-yl)phenylsulfonimidoyl)benzonitrile] |  |  | 59.6 nM | 141 nM
COc1ccc(-c2nc(N3CC[C@@H]3C)nc3c2CCC3)cc1S(=N)(=O)c1ccc(C#N)cc1 (stereo partly drawn) [Example 851, 4-(2-methoxy-5-(2-((S)-2-methylazetidin-1-yl)-6,7-dihydro-5H-cyclopenta[d]pyrimidin-4-yl)phenylsulfonimidoyl)benzonitrile] |  |  | 10.1 nM | 17.8 nM
C[C@H]1CCN1c1nc2c(c(-c3ccc4[nH]cnc4c3)n1)CCC2 [Example 852, (S)-5-(2-(2-methylazetidin-1-yl)-6,7-dihydro-5H-cyclopenta[d]pyrimidin-4-yl)-1H-benzo[d]imidazole] |  |  | 21.8 nM | 18.9 nM
C[C@H]1CCN1c1nc2c(c(-c3ccc4ncn(C)c4c3)n1)CCC2 [Example 853, (S)-1-methyl-6-(2-(2-methylazetidin-1-yl)-6,7-dihydro-5H-cyclopenta[d]pyrimidin-4-yl)-1H-benzo[d]imidazole] |  |  | 73.2 nM | 35.3 nM
C[C@H]1CCN1c1nc2c(c(-c3ccc4c(c3)CCCCC4NS(C)(=O)=O)n1)CCC2 (stereo partly drawn) [Example 854, N-(2-(2-((S)-2-methylazetidin-1-yl)-6,7-dihydro-5H-cyclopenta[d]pyrimidin-4-yl)-6,7,8,9-tetrahydro-5H-benzo[7]annulen-5-yl)methanesulfonamide] |  |  | 543 nM | 442 nM
C[C@H]1CCN1c1nc2c(c(-c3ccc4c(c3)NC(=O)CNC4)n1)CCC2 [Example 855, (S)-8-(2-(2-methylazetidin-1-yl)-6,7-dihydro-5H-cyclopenta[d]pyrimidin-4-yl)-1,3,4,5-tetrahydro-2H-benzo[e][1,4]diazepin-2-one] |  |  | 84.9 nM | 80.5 nM
C[C@H]1CCN1c1nc2c(c(-c3ccc4c(c3)N(C)C(=O)CNC4)n1)CCC2 [Example 856, (S)-1-methyl-8-(2-(2-methylazetidin-1-yl)-6,7-dihydro-5H-cyclopenta[d]pyrimidin-4-yl)-1,3,4,5-tetrahydro-2H-benzo[e][1,4]diazepin-2-one] |  |  | 143 nM | 175 nM
